Assay results published in PMC6594753, “Cystic fibrosis drug ivacaftor stimulates CFTR channels at picomolar concentrations” (eLife, 2019).
Values joined by “and” are separate entries in the source; they are usually repeats but may differ in a detail not shown here. Identical values can stand only once. Like-named read-outs stand apart in the source and are kept apart here.

Assays:
[1] = Thermodynamic parameters of the Vx-770 aqueous solution process; format: physicochemical
Method: As a further parameter of clinical interest, we also determined the aqueous solubility of Vx-770 at body temperature (pH = 7.1). […] The standard enthalpy of solution, estimated from the solubilities at 37°C vs. 25°C, is ΔH^osol = +51.2 kJ/mol, and the standard free energy of solution at 25°C is ΔG^osol = +41.1 kJ/mol (Materials and methods).
The standard enthalpy of solution was calculated as ΔH^osol = ((RT1T2)/(T2−T1))⋅ln(S(T2)/S(T1)), where R = 8.31 Jmol^−1K^−1, T1 = 298 K (25°C), T2 = 310 K (37°C), and S(T1) and S(T2) are the measured aqueous solubilities of Vx-770 at the respective temperatures (pH = 7.1). The standard free energy of solution at T = 298 K (25°C) was calculated as ΔG^osol = −RT⋅ln(S(T)).

WT CFTR = target: T1, WT CFTR (Homo sapiens, UniProt P13569); assay: Macroscopic current recording in excised inside-out patches from Xenopus laevis oocytes; format: biochemical; details: for EC50: 2 mM ATP, 25°C, read-out: K0.5 for current stimulation
T1 construct: expressed in transfected cells; host or cells: Xenopus laevis oocytes injected with cRNA transcribed from pGEMHE-CFTR
T1 sequence (P13569 whole entry): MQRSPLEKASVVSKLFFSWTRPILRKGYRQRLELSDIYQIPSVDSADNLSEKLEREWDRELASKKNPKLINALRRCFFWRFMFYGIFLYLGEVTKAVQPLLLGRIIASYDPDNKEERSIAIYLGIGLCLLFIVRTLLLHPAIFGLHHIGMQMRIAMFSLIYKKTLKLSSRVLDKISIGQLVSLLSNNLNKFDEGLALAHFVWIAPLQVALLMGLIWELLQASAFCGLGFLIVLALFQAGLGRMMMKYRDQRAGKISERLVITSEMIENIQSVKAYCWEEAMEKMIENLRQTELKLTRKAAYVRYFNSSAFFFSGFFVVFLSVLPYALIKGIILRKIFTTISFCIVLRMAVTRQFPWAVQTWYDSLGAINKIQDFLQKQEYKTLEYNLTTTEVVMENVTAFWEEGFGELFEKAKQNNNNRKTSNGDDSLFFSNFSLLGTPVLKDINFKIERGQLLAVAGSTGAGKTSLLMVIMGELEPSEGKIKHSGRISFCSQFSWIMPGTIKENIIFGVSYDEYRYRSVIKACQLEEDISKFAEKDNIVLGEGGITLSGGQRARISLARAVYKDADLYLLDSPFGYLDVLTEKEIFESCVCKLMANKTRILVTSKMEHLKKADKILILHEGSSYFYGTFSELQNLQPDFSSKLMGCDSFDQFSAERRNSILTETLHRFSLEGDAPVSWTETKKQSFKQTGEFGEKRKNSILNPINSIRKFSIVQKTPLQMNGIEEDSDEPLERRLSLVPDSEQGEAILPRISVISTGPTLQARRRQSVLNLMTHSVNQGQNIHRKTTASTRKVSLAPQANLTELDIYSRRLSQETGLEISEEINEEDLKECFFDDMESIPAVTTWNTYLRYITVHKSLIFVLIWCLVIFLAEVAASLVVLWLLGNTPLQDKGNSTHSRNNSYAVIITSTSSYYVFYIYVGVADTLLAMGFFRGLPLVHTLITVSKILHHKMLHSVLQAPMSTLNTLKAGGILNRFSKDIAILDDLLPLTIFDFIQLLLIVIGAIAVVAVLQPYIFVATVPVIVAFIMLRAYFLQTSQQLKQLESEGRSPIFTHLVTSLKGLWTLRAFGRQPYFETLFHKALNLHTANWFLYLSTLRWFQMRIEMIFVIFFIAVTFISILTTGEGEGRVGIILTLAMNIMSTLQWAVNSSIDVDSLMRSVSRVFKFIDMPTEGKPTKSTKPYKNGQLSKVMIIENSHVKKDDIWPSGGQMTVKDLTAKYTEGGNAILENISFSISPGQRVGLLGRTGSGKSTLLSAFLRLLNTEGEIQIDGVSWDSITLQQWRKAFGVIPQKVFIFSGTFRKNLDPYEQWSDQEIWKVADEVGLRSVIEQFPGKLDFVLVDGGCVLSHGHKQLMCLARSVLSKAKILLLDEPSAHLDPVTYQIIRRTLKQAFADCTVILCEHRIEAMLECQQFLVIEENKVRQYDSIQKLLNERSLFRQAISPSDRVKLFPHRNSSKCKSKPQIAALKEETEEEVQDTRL
Description: We reasoned that this circumstance might explain some of the puzzling features of the drug, such as CFTR channel inactivation observed in some cases ([Cholon et al., 2014]), as well as apparent irreversibility of drug effects ([Jih and Hwang, 2013]; [Lin et al., 2016]; [Yeh et al., 2015]; [Yeh et al., 2017]; [Wang et al., 2014]; [Wang et al., 2018]). To investigate stability and reversibility of Vx-770 effects in a concentration range that can be achieved in the human body during oral drug administration, we tested the effects of our 1x saturated Vx-770 solution and its dilutions in inside-out patches excised from Xenopus laevis oocytes expressing WT or mutant human CFTR channels.
Patch pipette solution contained (in mM): 136 NMDG-Cl, 2 MgCl2, 5 HEPES, pH = 7.4 with NMDG. Bath solution contained (in mM): 134 NMDG-Cl, 2 MgCl2, 5 HEPES, 0.5 EGTA, pH = 7.1 with NMDG. MgATP (2 mM) was added from a 400 mM aqueous stock solution (pH = 7.1 with NMDG). Before each experiment 300 nM catalytic subunit of PKA (Sigma-Aldrich Kft., Budapest, Hungary) was applied for ~1 min to phosphorylate CFTR channels. Vx-770 (Selleck Chemicals) was diluted into the bath solution either from a ‘1x saturated’ aqueous stock solution (see above, concentration ~62 nM), or from a commercially obtained 10 mM stock dissolved in DMSO (Selleck Chemicals). Following patch excision the patch pipette was moved into a flow chamber, and recordings were done under continuous superfusion of the cytosolic patch surface. Solution compositions were exchanged using computer-driven electronic valves (solution exchange time constant <50 ms). After each recording day perfusion tubings were extensively washed with distilled water. Although supersaturated solutions of Vx-770 were not employed here, any perfusion tubing that had ever been in contact with a given concentration of Vx-770 was subsequently used only for solutions that contained the same, or higher, concentrations of the drug. After every 5–6 experimental days the entire perfusion system was replaced. Currents were recorded at 25°C, at a membrane potential of −40 mV, digitized at 10 kHz, Gaussian-filtered at 2 kHz, and recorded to disk (Axopatch 200B, Digidata 1322A, Pclamp9 (Molecular Devices, RRID: SCR_011323)). For display purposes, currents are shown filtered at 10 Hz and sampled at 20 Hz, and expanded single-channel traces (Figure 2b, Figure 4d) are shown filtered at 50 Hz and sampled at 250 Hz.
Vx-770 was applied after currents elicited by 2 mM ATP had stabilized. To allow for full development of its potentiator effect, Vx-770 was superfused until the current reached steady state which, for low nanomolar Vx-770, required up to 5–6 min. After full stimulation, Vx-770 was washed off for at least 5 min to allow the current to decline to a post-drug steady state. Fractional current stimulation by Vx-770 (I/Icontrol) was calculated as the mean steady current in the presence of the drug, divided by the average of the pre- and post-drug mean steady currents. Dose response curves (Figure 3c,f) were least-squares fitted to the modified Hill equation I/Icontrol=(K0.5^n+(Imax/Icontrol)[Vx-770]^n)/(K0.5^n+[Vx-770]^n), with Imax/Icontrol, K0.5, and n as free parameters.
To obtain apparent deactivation rates, current decay time courses following Vx-770 removal were fitted by single exponentials using least squares, and deactivation rates defined as the inverse of the decay time constant (1/τoff; Figure 4c). To obtain apparent activation rates, current activation time courses upon Vx-770 addition were fitted to an empirical three-step kinetic scheme S1→S2→S3→S4. Compound states S1-S4 in this scheme are not interpreted as channel conformational states, but rather as states of the entire system (aqueous solution +patch membrane leaflets + channels), and could reflect various stages of drug distribution among those compartments. […]

[2] = parameters: method as in FDA report by Vertex Pharmaceuticals Incorporated; details: patients, oral, ref FDA report by Vertex Pharmaceuticals Incorporated, cited from earlier work
[3] = diluted from 10 mM DMSO-based stock

In the case of `CC(C)(C)c1cc(C(C)(C)C)c(NC(=O)c2c[nH]c3ccccc3c2=O)cc1O` [Vx-770, ivacaftor], the “TΔS^osol” value ([1]; 25°C) is reported as “+10.1 kJ/mol”, the “standard free energy of solution ΔG^osol” value ([1]; 25°C) is reported as “+41.1 kJ/mol” and the “standard enthalpy of solution ΔH^osol” value ([1]; from aqueous solubilities at 37°C vs. 25°C, pH 7.1) is reported as “+51.2 kJ/mol”. The “apparent activation time constant τ*” value (WT CFTR; 0.01x saturated Vx-770 (assigned by b20: slower at low concentration), Figure 4a) was 155 s, the current stimulation (WT CFTR; 1x saturated (~62 nM) Vx-770, 2 mM ATP, prephosphorylated channels, -40 mV) was ~ 4 fold and the “time constant τ of current decline following drug removal” value (WT CFTR; after 1x saturated (~62 nM) Vx-770, Figure 2a) was 145 s. The “time constant τ of current decline following drug removal” value (WT CFTR; after 1x saturated Vx-770) was ~ 2 min, the Hill coefficient (WT CFTR; [3]) was 1.32±0.47 and the EC50 (WT CFTR; [3]) was 0.49 ± 0.15 nM. For the same molecule, the Hill coefficient (WT CFTR; diluted from 1x saturated aqueous stock) was 1.31±0.65, the EC50 (WT CFTR; diluted from 1x saturated aqueous stock, assuming 62 nM) was 0.47 ± 0.12 nM and the “delay of onset of current stimulation” value (WT CFTR; subnanomolar/low nanomolar aqueous drug concentrations) was no more than 1 min. The “reversibility of Vx-770 effects” value (WT CFTR; upon removal of 1x saturated Vx-770) was “full reversibility”, the “apparent K0.5 lower (affinity higher) than previously reported” value (WT CFTR; versus ~300 nM reported) was ~ 600 fold and 600 fold and the peak plasma concentration ([2]; twice daily 150 mg (therapeutic)) was ~ 4 μM. The peak plasma concentration ([2]; twice daily 450 mg (supratherapeutic)) was greater than 10 µM.
